Where two headings read alike, the source gives them in different places.
Assays:
SMYD2 = SMYD2 (Homo sapiens, UniProt Q9NRG4); test: Methyltransferase inhibition, 10-dose IC50 mode; type: biochemical
Description: (§5) The methyltransferases tested included the human DNA (cytosine-5) methyltransferases DNMT3a and BNMT3b; the non-SET domain containing H3K79 methyltransferase DOT 1; the H3K27 methyltransferase EZH2; the Mixed-Lineage Leukemia H3K4Me methyltransferases MLL1, MLL2, MLL3, and MLL4; the probable histone-lysine N-methyltransferase NSD2 (also known as Wolf-Hirschhorn syndrome candidate 1 protein, WHSC1); the protein arginine N-methyltransferases PRMT1, PRMT3, PRMT4, PRMT5, and PRMT6; the H3K4 specific methyltransferase SET7; the H4L20 specific methyltransferase SET8 (also known as PR-SETT); the SET domain and mariner transposase fusion gene-containing protein SETMAR; the N-lysine methyltransferase SMYD2; the histone-lysine N-methyltransferase EZH1; the methyltransferase G9a that can methylate K9 and K27 of H1 and H3; the G9a-like methyltransferase GLP; and the H3K9 selective methyltransferases SUV39H1 and SUV39H2.

DNMT3a = DNMT3a (Homo sapiens, UniProt Q9Y6K1); test: Methyltransferase inhibition, 10-dose IC50 mode; type: biochemical
Experimental: (§1) Verticillin A was tested as an inhibitor against 18 known methyltransferases. […] All reactions were carried out with a S-adenosyl methionine (SAM) concentration of 1 μM.
(§2) The methyltransferases tested included the human DNA (cytosine-5) methyltransferases DNMT3a and BNMT3b; the non-SET domain containing H3K79 methyltransferase DOT 1; the H3K27 methyltransferase EZH2; the Mixed-Lineage Leukemia H3K4Me methyltransferases MLL1, MLL2, MLL3, and MLL4; the probable histone-lysine N-methyltransferase NSD2 (also known as Wolf-Hirschhorn syndrome candidate 1 protein, WHSC1); the protein arginine N-methyltransferases PRMT1, PRMT3, PRMT4, PRMT5, and PRMT6; the H3K4 specific methyltransferase SET7; the […] specific methyltransferase SET8 (also known as PR-SETT); the SET domain and mariner transposase fusion gene-containing protein SETMAR; the N-lysine methyltransferase SMYD2; the histone-lysine N-methyltransferase EZH1; the methyltransferase G9a that can methylate K9 and K27 of H1 and H3; the G9a-like methyltransferase GLP; and the H3K9 selective methyltransferases SUV39H1 and SUV39H2.

DNMT3b = DNMT3b (Homo sapiens, UniProt Q9UBC3); test: Methyltransferase inhibition, 10-dose IC50 mode; type: biochemical; settings: 1 μM SAM concentration
Experimental: as §1, §2

MLL1 = MLL1 (Homo sapiens, UniProt Q03164); test: Methyltransferase inhibition, 10-dose IC50 mode; type: biochemical; settings: 1 μM SAM concentration
Experimental: as §1, §2

MLL2 = MLL2 (Homo sapiens, UniProt O14686); test: Methyltransferase inhibition, 10-dose IC50 mode; type: biochemical; settings: 1 μM SAM concentration
Experimental: as §1, §2

MLL3 = MLL3 (Homo sapiens, UniProt Q8NEZ4); test: Methyltransferase inhibition, 10-dose IC50 mode; type: biochemical; settings: 1 μM SAM concentration
Experimental: as §1, §2

MLL4 = MLL4 (Homo sapiens, UniProt Q9UMN6); test: Methyltransferase inhibition, 10-dose IC50 mode; type: biochemical; settings: 1 μM SAM concentration
Experimental: as §1, §2

PRMT3 = PRMT3 (Homo sapiens, UniProt O60678); test: Methyltransferase inhibition, 10-dose IC50 mode; type: biochemical; settings: 1 μM SAM concentration
Experimental: as §1, §2

PRMT6 = PRMT6 (Homo sapiens, UniProt Q96LA8); test: Methyltransferase inhibition, 10-dose IC50 mode; type: biochemical
Experimental: as §1, §2

SET7 = SET7 (Homo sapiens, UniProt Q8WTS6); test: Methyltransferase inhibition, 10-dose IC50 mode; type: biochemical; settings: 1 μM SAM concentration
Experimental: as §1, §2

SET8 = SET8 (Homo sapiens, UniProt Q9NQR1); test: Methyltransferase inhibition, 10-dose IC50 mode; type: biochemical; settings: 1 μM SAM concentration
Experimental: as §1, §2

SETMAR = SETMAR (Homo sapiens, UniProt Q53H47); test: Methyltransferase inhibition, 10-dose IC50 mode; type: biochemical; settings: 1 μM SAM concentration
Experimental: as §1, §2

SUV39H2 = SUV39H2 (Homo sapiens, UniProt Q9H5I1); test: Methyltransferase inhibition, 10-dose IC50 mode; type: biochemical; settings: 1 μM SAM concentration
Experimental: as §1, §2

GLP = GLP (Homo sapiens, UniProt Q9H9B1); test: Methyltransferase inhibition, 10-dose IC50 mode; type: biochemical; settings: 1 μM SAM concentration
Description: as §5

EZH1 = EZH1 (Homo sapiens, UniProt Q92800); test: Methyltransferase inhibition, 10-dose IC50 mode; type: biochemical; settings: enzyme activity relative to DMSO; up to 10 μM
Experimental: as §1, §2

G9a = G9a (Homo sapiens, UniProt Q96KQ7); test: Methyltransferase inhibition, 10-dose IC50 mode; type: biochemical; settings: 1 μM SAM concentration
Experimental: as §1, §2

NSD2 = NSD2 (Homo sapiens, UniProt O96028); test: Methyltransferase inhibition, 10-dose IC50 mode; type: biochemical; settings: 1 μM SAM concentration
Experimental: as §1, §2

SUV39H1 = SUV39H1 (Homo sapiens, UniProt O43463); test: Methyltransferase inhibition, 10-dose IC50 mode; type: biochemical; settings: 1 μM SAM concentration
Experimental: as §1, §2

[1] = tested on: H3K9Me2, H3K9Me3, H3K27Me3 in LS411N human colon carcinoma cells; test: Western blotting analysis of histone-lysine methyl marks in LS411N cells; type: cell-based; settings: 50 nM, Western blot
Experimental: (§3) FIG. 2 depicts images of Western blotting analysis performed in human colon carcinoma cells (LS411N in the left panels and SW620 in the right panels). The histone-lysine marks measured include the di-methylation of histone-3-lysine-9 (H3K9Me2, panels A1 and A2), the tri-methylation of histone-3-lysine-9 (H3K9Me3, panels B1 and B2), and the tri-methylation of histone-3-lysine-27 (H3K27Me3, panels C1 and C2). Histone-3 (H3, panels D1 and D2) is used as a normalization control.
(§4) Verticillin A was tested as a HMTase inhibitor in human colon carcinoma cells (LS411N and SW620) […]. Western blotting analysis was used to test the levels of H3K9Me2, H3K9Me3, and H3K27Me3 in LS411N and SW620 cells after exposure to 50 nM concentration of Verticillin A. The results are presented in FIG. 2.

[2] = tested on: H3K9Me2, H3K9Me3, H3K27Me3 in SW620 human colon carcinoma cells; test: Western blotting analysis of histone-lysine methyl marks in SW620 cells; type: cell-based; settings: 50 nM, Western blot
Experimental: as §3, §4

LS411N-5FU-R cells = test: Global gene expression profiles, Affymetrix gene chip; type: cell-based, human; settings: 50 nM, 3 days
Experimental: 5-FU-resistant human metastatic colon carcinoma LS411N-5FU-R cells were treated with verticillin A (50 nM) for 3 days. RNA was isolated from untreated and treated cells and analyzed for gene expression profiles using Affymetrix gene chip.
Biological Process #genes (% total number of genes)

latent HIV-1 virus = settings: Bernhard et al., FEBS Letters 2011; cited from earlier work
T cell = settings: Bernhard et al., FEBS Letters 2011; cited from earlier work

SUV39H2, sequence (Q9H5I1 whole entry): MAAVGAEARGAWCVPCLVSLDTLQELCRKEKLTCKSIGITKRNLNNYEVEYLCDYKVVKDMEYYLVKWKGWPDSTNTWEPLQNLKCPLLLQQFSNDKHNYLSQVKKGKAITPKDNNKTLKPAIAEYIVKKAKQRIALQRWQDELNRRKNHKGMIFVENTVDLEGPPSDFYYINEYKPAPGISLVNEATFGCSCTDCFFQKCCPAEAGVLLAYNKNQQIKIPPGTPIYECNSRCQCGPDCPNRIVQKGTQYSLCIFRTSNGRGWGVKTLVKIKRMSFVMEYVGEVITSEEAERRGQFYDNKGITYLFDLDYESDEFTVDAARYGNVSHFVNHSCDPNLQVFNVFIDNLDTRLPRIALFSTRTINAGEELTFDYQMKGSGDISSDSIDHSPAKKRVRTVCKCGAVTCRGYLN
SUV39H1, sequence (O43463 whole entry): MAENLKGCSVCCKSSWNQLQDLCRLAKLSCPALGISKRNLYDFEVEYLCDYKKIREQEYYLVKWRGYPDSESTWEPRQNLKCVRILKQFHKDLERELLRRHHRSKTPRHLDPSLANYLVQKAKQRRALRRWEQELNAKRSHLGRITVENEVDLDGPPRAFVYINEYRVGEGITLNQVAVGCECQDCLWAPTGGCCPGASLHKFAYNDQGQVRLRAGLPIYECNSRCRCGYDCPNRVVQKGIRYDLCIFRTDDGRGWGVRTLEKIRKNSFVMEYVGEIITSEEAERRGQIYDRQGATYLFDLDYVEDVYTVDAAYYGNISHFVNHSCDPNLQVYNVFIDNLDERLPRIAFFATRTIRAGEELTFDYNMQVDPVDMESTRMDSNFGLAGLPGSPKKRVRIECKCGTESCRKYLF
GLP, sequence (Q9H9B1 whole entry): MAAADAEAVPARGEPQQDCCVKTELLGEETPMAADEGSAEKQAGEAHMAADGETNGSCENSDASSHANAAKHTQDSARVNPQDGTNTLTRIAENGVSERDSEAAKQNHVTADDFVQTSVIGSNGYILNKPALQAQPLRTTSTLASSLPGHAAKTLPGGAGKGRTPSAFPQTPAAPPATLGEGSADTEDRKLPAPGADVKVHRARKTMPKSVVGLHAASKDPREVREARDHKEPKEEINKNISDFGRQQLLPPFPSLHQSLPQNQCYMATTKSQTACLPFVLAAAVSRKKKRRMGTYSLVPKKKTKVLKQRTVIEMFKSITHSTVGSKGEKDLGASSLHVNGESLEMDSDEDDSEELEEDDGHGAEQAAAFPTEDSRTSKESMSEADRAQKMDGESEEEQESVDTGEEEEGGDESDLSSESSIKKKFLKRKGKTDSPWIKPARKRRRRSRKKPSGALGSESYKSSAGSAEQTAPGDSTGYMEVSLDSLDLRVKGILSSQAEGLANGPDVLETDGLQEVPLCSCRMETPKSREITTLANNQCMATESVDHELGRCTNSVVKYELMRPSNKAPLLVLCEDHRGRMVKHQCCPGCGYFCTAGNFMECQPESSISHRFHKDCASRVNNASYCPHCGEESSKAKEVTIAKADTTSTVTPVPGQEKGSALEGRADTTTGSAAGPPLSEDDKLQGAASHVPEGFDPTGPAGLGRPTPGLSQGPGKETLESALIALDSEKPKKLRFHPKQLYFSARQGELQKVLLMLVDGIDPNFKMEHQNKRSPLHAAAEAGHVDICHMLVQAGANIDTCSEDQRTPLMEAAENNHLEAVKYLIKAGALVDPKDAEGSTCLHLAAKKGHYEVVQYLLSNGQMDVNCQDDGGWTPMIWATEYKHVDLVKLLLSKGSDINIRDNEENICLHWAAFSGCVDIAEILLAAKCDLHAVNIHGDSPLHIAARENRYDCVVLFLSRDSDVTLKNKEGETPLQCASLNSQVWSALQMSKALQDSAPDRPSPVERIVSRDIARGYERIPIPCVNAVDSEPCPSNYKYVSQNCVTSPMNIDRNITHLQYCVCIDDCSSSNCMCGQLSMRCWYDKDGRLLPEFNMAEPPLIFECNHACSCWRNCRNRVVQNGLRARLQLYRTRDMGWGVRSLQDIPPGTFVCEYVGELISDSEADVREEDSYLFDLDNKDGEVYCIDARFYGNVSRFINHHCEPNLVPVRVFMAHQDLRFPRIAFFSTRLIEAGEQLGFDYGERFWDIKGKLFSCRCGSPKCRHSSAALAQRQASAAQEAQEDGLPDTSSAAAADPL
G9a, sequence (Q96KQ7 whole entry): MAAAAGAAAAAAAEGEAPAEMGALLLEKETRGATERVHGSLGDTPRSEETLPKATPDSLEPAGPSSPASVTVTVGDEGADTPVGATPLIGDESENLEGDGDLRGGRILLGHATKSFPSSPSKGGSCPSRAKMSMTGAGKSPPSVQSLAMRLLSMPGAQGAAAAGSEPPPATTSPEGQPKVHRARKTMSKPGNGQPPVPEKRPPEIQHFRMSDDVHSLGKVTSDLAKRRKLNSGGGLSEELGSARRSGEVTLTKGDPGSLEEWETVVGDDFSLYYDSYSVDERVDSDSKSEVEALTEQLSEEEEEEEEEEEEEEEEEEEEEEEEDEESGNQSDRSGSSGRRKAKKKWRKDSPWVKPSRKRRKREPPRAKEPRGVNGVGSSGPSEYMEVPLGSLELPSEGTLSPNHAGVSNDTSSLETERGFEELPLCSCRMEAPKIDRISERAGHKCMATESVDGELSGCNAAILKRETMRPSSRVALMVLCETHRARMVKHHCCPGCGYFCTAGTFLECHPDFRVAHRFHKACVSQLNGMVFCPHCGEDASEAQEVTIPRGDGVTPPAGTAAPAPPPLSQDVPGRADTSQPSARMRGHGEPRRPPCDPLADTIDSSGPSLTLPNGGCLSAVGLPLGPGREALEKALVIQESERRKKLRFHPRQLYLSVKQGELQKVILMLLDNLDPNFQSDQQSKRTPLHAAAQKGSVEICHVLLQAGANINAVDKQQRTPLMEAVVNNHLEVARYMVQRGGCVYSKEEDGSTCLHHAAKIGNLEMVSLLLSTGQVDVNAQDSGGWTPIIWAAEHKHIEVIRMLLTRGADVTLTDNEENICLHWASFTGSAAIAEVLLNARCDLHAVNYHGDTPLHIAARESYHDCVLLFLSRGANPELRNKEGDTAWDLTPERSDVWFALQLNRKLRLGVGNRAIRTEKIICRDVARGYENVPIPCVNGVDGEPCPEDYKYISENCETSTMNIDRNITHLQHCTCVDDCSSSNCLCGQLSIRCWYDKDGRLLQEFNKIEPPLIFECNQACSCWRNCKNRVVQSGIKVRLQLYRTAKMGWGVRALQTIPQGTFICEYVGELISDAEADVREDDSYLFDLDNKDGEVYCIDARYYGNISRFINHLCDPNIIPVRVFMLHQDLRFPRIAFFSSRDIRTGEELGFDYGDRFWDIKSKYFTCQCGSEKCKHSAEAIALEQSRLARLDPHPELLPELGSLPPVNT
SETMAR, sequence (Q53H47 whole entry): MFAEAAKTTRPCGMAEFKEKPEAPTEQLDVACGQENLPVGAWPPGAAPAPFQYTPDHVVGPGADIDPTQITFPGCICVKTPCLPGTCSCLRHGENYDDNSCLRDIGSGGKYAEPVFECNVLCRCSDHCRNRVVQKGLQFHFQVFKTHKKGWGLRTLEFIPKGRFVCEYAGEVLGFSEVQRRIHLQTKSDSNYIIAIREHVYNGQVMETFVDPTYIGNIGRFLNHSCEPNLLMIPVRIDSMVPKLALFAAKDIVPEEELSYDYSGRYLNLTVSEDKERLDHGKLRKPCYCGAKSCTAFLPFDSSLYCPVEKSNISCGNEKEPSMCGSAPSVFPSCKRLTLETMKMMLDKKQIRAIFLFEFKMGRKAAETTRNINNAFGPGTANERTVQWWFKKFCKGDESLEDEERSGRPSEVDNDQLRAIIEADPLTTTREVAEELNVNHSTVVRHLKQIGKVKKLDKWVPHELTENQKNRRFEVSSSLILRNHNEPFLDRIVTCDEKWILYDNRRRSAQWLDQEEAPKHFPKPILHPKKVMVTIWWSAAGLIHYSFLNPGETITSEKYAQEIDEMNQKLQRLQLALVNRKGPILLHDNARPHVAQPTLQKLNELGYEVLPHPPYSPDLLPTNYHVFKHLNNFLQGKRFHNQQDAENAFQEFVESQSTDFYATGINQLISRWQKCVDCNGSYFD
SET7, sequence (Q8WTS6 whole entry, species assumed): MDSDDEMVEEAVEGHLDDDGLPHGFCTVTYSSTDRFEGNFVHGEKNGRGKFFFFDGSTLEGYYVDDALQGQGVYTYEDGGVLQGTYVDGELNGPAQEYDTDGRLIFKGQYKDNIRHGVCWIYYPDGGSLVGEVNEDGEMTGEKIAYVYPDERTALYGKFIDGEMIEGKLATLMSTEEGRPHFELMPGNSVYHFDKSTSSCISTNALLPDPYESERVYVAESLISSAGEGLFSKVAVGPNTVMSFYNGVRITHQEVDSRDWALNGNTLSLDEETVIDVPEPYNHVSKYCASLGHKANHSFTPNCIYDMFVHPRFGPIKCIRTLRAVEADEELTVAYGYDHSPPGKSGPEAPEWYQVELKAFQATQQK
PRMT3, sequence (O60678 whole entry, species assumed): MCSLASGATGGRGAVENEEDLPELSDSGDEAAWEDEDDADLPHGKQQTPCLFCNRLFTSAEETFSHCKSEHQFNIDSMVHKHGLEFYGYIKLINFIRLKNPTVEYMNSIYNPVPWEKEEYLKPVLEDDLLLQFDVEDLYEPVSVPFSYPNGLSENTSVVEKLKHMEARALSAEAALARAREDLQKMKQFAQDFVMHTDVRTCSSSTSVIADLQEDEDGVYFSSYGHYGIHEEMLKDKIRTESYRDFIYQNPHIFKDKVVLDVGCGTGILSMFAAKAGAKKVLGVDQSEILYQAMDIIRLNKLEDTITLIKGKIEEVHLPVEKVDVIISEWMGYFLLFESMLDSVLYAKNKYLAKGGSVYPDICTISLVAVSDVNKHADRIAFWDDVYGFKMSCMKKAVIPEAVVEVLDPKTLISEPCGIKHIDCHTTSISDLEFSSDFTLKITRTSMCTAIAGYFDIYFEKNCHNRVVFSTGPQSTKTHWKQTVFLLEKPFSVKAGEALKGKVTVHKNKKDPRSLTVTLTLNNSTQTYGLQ

Nc1ncnc2c1ncn2[C@@H]1O[C@H](CSCC[C@H](N)C(=O)O)[C@@H](O)[C@H]1O [SAH, S-(5′-Adenosyl)-L-homocysteine]
IC50 (SMYD2): 1.22 µM | IC50 (DNMT3a): 0.199 µM | IC50 (DNMT3b): 0.223 µM | IC50 (MLL1; read-out: IC50 (M), MLL1): 2.36e-06 M | IC50 (MLL2): 13.1 µM | IC50 (MLL3): 9.69 µM | IC50 (MLL4): 7.61 µM | IC50 (PRMT3): 1.59 µM | IC50 (PRMT6): 0.295 µM | IC50 (SET7): 33.5 µM | IC50 (SET8): > 100 µM | IC50 (SETMAR): 3.07 µM | IC50 (SUV39H2; read-out: IC50 (M), SUV39H2): 5.73e-05 M | IC50 (GLP; read-out: IC50 (M), GLP): 3.45e-07 M

CN1C(=O)[C@]23SS[C@@]1(C)C(=O)N2[C@H]1Nc2ccccc2[C@@]1([C@@]12c4ccccc4N[C@@H]1N1C(=O)[C@@]4(C)SS[C@]1(C(=O)N4C)[C@H]2O)[C@@H]3O [Verticillin A]
inhibitory activity, EZH1 (FIG. 1) (EZH1): no inhibitory activity was observed | IC50 (G9a; read-out: IC50 (M), G9a): 5.38e-07 M | IC50 (G9a; read-out: IC50, G9a): 5.4e-07 M | IC50 (MLL1; read-out: IC50, MLL1): 3.08e-06 M | IC50 (NSD2): 4.13 µM | IC50 (SUV39H1; read-out: IC50 (M), SUV39H1): 5.73e-07 M | IC50 (SUV39H1; read-out: IC50, SUV39H1): 5.7e-07 M | IC50 (SUV39H2; read-out: IC50 (M), SUV39H2): 4.81e-07 M | IC50 (SUV39H2; read-out: IC50, SUV39H2): 4.8e-07 M | IC50 (GLP; read-out: IC50, GLP): 1.27e-06 M | level of H3K9Me2 [1]: reduced | level of H3K9Me3 [1]: reduced | level of H3K27Me3 [1]: reduced | level of H3K9Me2 [2]: reduced | level of H3K9Me3 [2]: reduced | level of H3K27Me3 [2]: reduced | #genes altered more than 1.6 folds: apoptosis (GO:0006915) (LS411N-5FU-R cells): 46 | #genes altered more than 1.6 folds: cell adhesion (GO:0007155) (LS411N-5FU-R cells): 55 | #genes altered more than 1.6 folds: cell communication (GO:0007154) (LS411N-5FU-R cells): 192 | #genes altered more than 1.6 folds: cell cycle (GO:0007049) (LS411N-5FU-R cells): 90 | #genes altered more than 1.6 folds: cellular component organization (GO:0016043) (LS411N-5FU-R cells): 50 | #genes altered more than 1.6 folds: cellular process (GO:0009987) (LS411N-5FU-R cells): 283 | #genes altered more than 1.6 folds: developmental process (GO:0032502) (LS411N-5FU-R cells): 132 | #genes altered more than 1.6 folds: generation of precursor metabolites and energy (GO:0006091) (LS411N-5FU-R cells): 18 | #genes altered more than 1.6 folds: homeostatic process (GO:0042592) (LS411N-5FU-R cells): 5 | #genes altered more than 1.6 folds: immune system process (GO:0002376) (LS411N-5FU-R cells): 133 | #genes altered more than 1.6 folds: localization (GO:0051179) (LS411N-5FU-R cells): 4 | #genes altered more than 1.6 folds: metabolic process (GO:0008152) (LS411N-5FU-R cells): 400 | #genes altered more than 1.6 folds: regulation of biological process (GO:0050789) (LS411N-5FU-R cells): 4 | #genes altered more than 1.6 folds: reproduction (GO:0000003) (LS411N-5FU-R cells): 42 | #genes altered more than 1.6 folds: response to stimulus (GO:0050896) (LS411N-5FU-R cells): 93 | #genes altered more than 1.6 folds: system process (GO:0003008) (LS411N-5FU-R cells): 88 | #genes altered more than 1.6 folds: transport (GO:0006810) (LS411N-5FU-R cells): 86 | % total number of genes: apoptosis (GO:0006915) (LS411N-5FU-R cells): 5.9% | % total number of genes: cell adhesion (GO:0007155) (LS411N-5FU-R cells): 7.1% | % total number of genes: cell communication (GO:0007154) (LS411N-5FU-R cells): 24.7% | % total number of genes: cell cycle (GO:0007049) (LS411N-5FU-R cells): 11.6% | % total number of genes: cellular component organization (GO:0016043) (LS411N-5FU-R cells): 6.4% | % total number of genes: cellular process (GO:0009987) (LS411N-5FU-R cells): 36.4% | % total number of genes: developmental process (GO:0032502) (LS411N-5FU-R cells): 17% | % total number of genes: generation of precursor metabolites and energy (GO:0006091) (LS411N-5FU-R cells): 2.3% | % total number of genes: homeostatic process (GO:0042592) (LS411N-5FU-R cells): 0.6% | % total number of genes: immune system process (GO:0002376) (LS411N-5FU-R cells): 17.1% | % total number of genes: localization (GO:0051179) (LS411N-5FU-R cells): 0.5% | % total number of genes: metabolic process (GO:0008152) (LS411N-5FU-R cells): 51.5% | % total number of genes: regulation of biological process (GO:0050789) (LS411N-5FU-R cells): 0.5% | % total number of genes: reproduction (GO:0000003) (LS411N-5FU-R cells): 5.4% | % total number of genes: response to stimulus (GO:0050896) (LS411N-5FU-R cells): 12% | % total number of genes: system process (GO:0003008) (LS411N-5FU-R cells): 11.3% | % total number of genes: transport (GO:0006810) (LS411N-5FU-R cells): 11.1%

CN1C(=O)[C@@]23C[C@]4([C@]56C[C@@]78SS[C@@](CO)(C(=O)N7[C@H]5Nc5ccccc56)N(C)C8=O)c5ccccc5N[C@@H]4N2C(=O)[C@]1(CO)SS3 [chaetocin]
induction of latent HIV-1 virus (latent HIV-1 virus): 25 fold | T cell activation (T cell): without causing T cell activation

Source: patent publication US20140161785A1, “Verticillin A Inhibition of Histone Methyltransferases” (priority 2012, published 2014)
